According to patent US12404295B2, “(Hetero)aryl-methyl-thio-beta-D-galactopyranoside derivatives” (Idorsia Pharmaceuticals Ltd, priority 2019, dated 2025):
Like-named read-outs stand apart in the source and are kept apart here.

What was measured:
[1] = biological target: human Gal-1 (hGal-1) (Homo sapiens (Human), UniProt P09382); test: competitive binding assay: biotinylated hGal-1 binding to microplate-adsorbed asialofetuin (ASF); conditions: Table 15; read-out: IC50 (Galectin-1 inhibition)
In short: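 Spectrophotometric competition readout: after compound and biotinylated hGal-1 (300-1000 ng/mL) sit 3 h at 4° C on adsorbed asialofetuin, streptavidin-peroxidase (1 h, 4° C) and ABTS reveal residual binding. Reported IC50 values are means of repeat runs.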

[2] = biological target: human Gal-3 (hGal-3) (Homo sapiens (Human), UniProt P17931); test: competitive binding assay: biotinylated hGal-3 binding to microplate-adsorbed asialofetuin (ASF)
In short: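 Serial DMSO dilutions of each compound; binding incubation of 3 hours at 4 °C with cold-buffer washes; detection using 80 ng/mL streptavidin-peroxidase for 1 hour, then ABTS. Multiple determinations were averaged to give the IC50.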

[3] = Gal-3 inhibition, binding of biotinylated hGal-3 to ASF, mean values, read-out: IC50
[4] = Table 14, read-out: IC50 (Gal-3 inhibition)
[5] = Table 5, read-out: IC50 (Gal-3 inhibition)

Sequence of human Gal-1 (hGal-1) (P09382 whole entry): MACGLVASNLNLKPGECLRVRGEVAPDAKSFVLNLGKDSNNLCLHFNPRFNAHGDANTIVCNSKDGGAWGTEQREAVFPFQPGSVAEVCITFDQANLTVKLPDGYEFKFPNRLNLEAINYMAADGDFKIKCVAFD
Sequence of human Gal-3 (hGal-3) (P17931 whole entry): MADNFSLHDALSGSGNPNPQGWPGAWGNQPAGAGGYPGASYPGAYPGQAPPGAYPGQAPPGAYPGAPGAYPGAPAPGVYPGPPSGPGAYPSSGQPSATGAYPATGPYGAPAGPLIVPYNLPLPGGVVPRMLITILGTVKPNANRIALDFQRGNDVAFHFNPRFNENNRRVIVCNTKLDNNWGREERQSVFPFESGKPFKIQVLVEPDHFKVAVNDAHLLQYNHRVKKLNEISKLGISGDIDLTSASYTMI

Molecule | IC50 [1] | IC50 [2, 3] | IC50 [2, 4] | IC50 [2, 5] | IC50 ([2]; Table 10, 2-OMe-Gal inhibitors, read-out: IC50 (Gal-3 inhibition))
Cc1c(F)cc(-c2cn([C@H]3[C@@H](O)[C@@H](CO)O[C@@H](SC(c4ccccc4C(F)(F)F)C(C)(C)O)[C@@H]3O)nn2)cc1F (stereo partly drawn) [Example 3.31.112., (2S,3R,4S,5R,6R)-4-(4-(3,5-Difluoro-4-methylphenyl)-1H-1,2,3-triazol-1-yl)-2-((2-hydroxy-2-methyl-1-(2-(trifluoromethyl)phenyl)propyl)thio)-6-(hydroxymethyl)tetrahydro-2H-pyran-3,5-diol] | 4900 nM | 210 nM |  |  | 
Cc1c(F)cc(-c2cn([C@H]3[C@@H](O)[C@@H](CO)O[C@@H](S[C@H](c4ccccc4C(F)(F)F)C(C)(C)O)[C@@H]3O)nn2)cc1F [Example 3.31.112R., (2S,3R,4S,5R,6R)-4-(4-(3,5-Difluoro-4-methylphenyl)-1H-1,2,3-triazol-1-yl)-2-(((R)-2-hydroxy-2-methyl-1-(2-(trifluoromethyl)phenyl)propyl)thio)-6-(hydroxymethyl)tetrahydro-2H-pyran-3,5-diol] | 2840 nM | 150 nM |  |  | 
Cc1c(F)cc(-c2cn([C@H]3[C@@H](O)[C@@H](CO)O[C@@H](S[C@@H](c4ccccc4C(F)(F)F)C(C)(C)O)[C@@H]3O)nn2)cc1F [Example 3.31.112S., (2S,3R,4S,5R,6R)-4-(4-(3,5-Difluoro-4-methylphenyl)-1H-1,2,3-triazol-1-yl)-2-(((S)-2-hydroxy-2-methyl-1-(2-(trifluoromethyl)phenyl)propyl)thio)-6-(hydroxymethyl)tetrahydro-2H-pyran-3,5-diol] | 54200 nM | 4850 nM |  |  | 
CO[C@@H]1[C@@H](n2cc(-c3cc(F)c(C)c(F)c3)nn2)[C@@H](O)[C@@H](CO)O[C@H]1S[C@H](c1ncccc1C)C1(O)CCC(F)(F)CC1 [Example 3.44.126R.I., (2R,3R,4S,5R,6S)-6-(((R)-(4,4-Difluoro-1-hydroxycyclohexyl)(3-methylpyridin-2-yl)methyl)thio)-4-(4-(3,5-difluoro-4-methylphenyl)-1H-1,2,3-triazol-1-yl)-2-(hydroxymethyl)-5-methoxytetrahydro-2H-pyran-3-ol] | 2430 nM |  | 40 nM |  | 
CO[C@@H]1[C@@H](n2cc(-c3cc(F)c(C)c(F)c3)nn2)[C@@H](O)[C@@H](CO)O[C@H]1S[C@@H](c1ncccc1C)C1(O)CCC(F)(F)CC1 [Example 3.44.126S.I., (2R,3R,4S,5R,6S)-6-(((S)-(4,4-Difluoro-1-hydroxycyclohexyl)(3-methylpyridin-2-yl)methyl)thio)-4-(4-(3,5-difluoro-4-methylphenyl)-1H-1,2,3-triazol-1-yl)-2-(hydroxymethyl)-5-methoxytetrahydro-2H-pyran-3-ol] | 20000 nM |  | 1160 nM |  | 
CC(C)(O)C(S[C@@H]1O[C@H](CO)[C@H](O)[C@H](n2cc(-c3ccc4ccccc4c3)nn2)[C@H]1O)c1ccccc1C(F)(F)F (stereo partly drawn) [Example 4.31.112, (2S,3R,4S,5R,6R)-2-((2-Hydroxy-2-methyl-1-(2-(trifluoromethyl)phenyl)propyl)thio)-6-(hydroxymethyl)-4-(4-(naphthalen-2-yl)-1H-1,2,3-triazol-1-yl)tetrahydro-2H-pyran-3,5-diol] | 2270 nM | 2240 nM |  |  | 
CC(C)(O)C(S[C@@H]1O[C@H](CO)[C@H](O)[C@H](n2cc(-c3ccc(C#N)c(F)c3)nn2)[C@H]1O)c1ccccc1C(F)(F)F (stereo partly drawn) [Example 5.31.112., 4-(1-((2S,3R,4S,5R,6R)-3,5-Dihydroxy-2-((2-hydroxy-2-methyl-1-(2-(trifluoromethyl)phenyl)propyl)thio)-6-(hydroxymethyl)tetrahydro-2H-pyran-4-yl)-1H-1,2,3-triazol-4-yl)-2-fluorobenzonitrile] | 3580 nM | 1500 nM |  |  | 
(2R,3R,4S,5R,6S)-6-(((R)-(5-Cyclopropyl-3-methylisoxazol-4-yl)(1-hydroxycyclohexyl)methyl)thio)-2-(hydroxymethyl)-5-methoxy-4-(4-(3,4,5-trifluorophenyl)-1H-1,2,3-triazol-1-yl)tetrahydro-2H-pyran-3-ol [Example 2.39.128R.I.] | 2360 nM |  |  |  | 300 nM
(2S,3R,4S,5R,6R)-2-(((2,3-Dichlorophenyl)(4,4-difluoro-1-hydroxycyclohexyl)methyl)thio)-6-(hydroxymethyl)-4-(4-(3,4,5-trifluorophenyl)-1H-1,2,3-triazol-1-yl)tetrahydro-2H-pyran-3,5-diol [Example 2.44.113.] | 2350 nM |  |  | 360 nM | 
(2S,3R,4S,5R,6R)-2-(((3,3-Difluoro-1-hydroxycyclobutyl)(3-(trifluoromethyl)pyridin-2-yl)methyl)thio)-6-(hydroxymethyl)-4-(4-(3,4,5-trifluorophenyl)-1H-1,2,3-triazol-1-yl)tetrahydro-2H-pyran-3,5-diol [Example 2.35.125.] | 1460 nM |  |  | 320 nM | 

The next lines start with results.

IC50 [1] | IC50 [2, 3] | IC50 [2, 4] | IC50 [2, 5] | Molecule | IC50 ([2]; Table 10, 2-OMe-Gal inhibitors, read-out: IC50 (Gal-3 inhibition))
2430 nM |  | 90 nM |  | CO[C@@H]1[C@@H](n2cc(-c3cc(F)c(Cl)c(F)c3)nn2)[C@@H](O)[C@@H](CO)O[C@H]1SC(c1ncccc1C)C1(O)CCC(F)(F)CC1 (stereo partly drawn) [Example 11.44.126.I., (2R,3R,4S,5R,6S)-4-(4-(4-Chloro-3,5-difluorophenyl)-1H-1,2,3-triazol-1-yl)-6-(((4,4-difluoro-1-hydroxycyclohexyl)(3-methylpyridin-2-yl)methyl)thio)-2-(hydroxymethyl)-5-methoxytetrahydro-2H-pyran-3-ol] | 
3240 nM |  | 190 nM |  | CO[C@@H]1[C@@H](n2cc(-c3ccc(Br)c(F)c3)nn2)[C@@H](O)[C@@H](CO)O[C@H]1SC(c1ncccc1C)C1(O)CCC(F)(F)CC1 (stereo partly drawn) [Example 12.44.126.I., (2R,3R,4S,5R,6S)-4-(4-(4-Bromo-3-fluorophenyl)-1H-1,2,3-triazol-1-yl)-6-(((4,4-difluoro-1-hydroxycyclohexyl)(3-methylpyridin-2-yl)methyl)thio)-2-(hydroxymethyl)-5-methoxytetrahydro-2H-pyran-3-ol] | 
730 nM |  | 90 nM |  | CO[C@@H]1[C@@H](n2cc(-c3ccc(F)c(F)c3)nn2)[C@@H](O)[C@@H](CO)O[C@H]1SC(c1ncccc1C)C1(O)CCC(F)(F)CC1 (stereo partly drawn) [Example 16.44.126.I., (2R,3R,4S,5R,6S)-6-(((4,4-Difluoro-1-hydroxycyclohexyl)(3-methylpyridin-2-yl)methyl)thio)-4-(4-(3,4-difluorophenyl)-1H-1,2,3-triazol-1-yl)-2-(hydroxymethyl)-5-methoxytetrahydro-2H-pyran-3-ol] | 
570 nM |  | 80 nM |  | CO[C@@H]1[C@@H](n2cc(-c3ccc(F)c(F)c3)nn2)[C@@H](O)[C@@H](CO)O[C@H]1S[C@H](c1ncccc1C)C1(O)CCC(F)(F)CC1 [Example 16.44.126R.I., (2R,3R,4S,5R,6S)-6-(((R)-(4,4-Difluoro-1-hydroxycyclohexyl)(3-methylpyridin-2-yl)methyl)thio)-4-(4-(3,4-difluorophenyl)-1H-1,2,3-triazol-1-yl)-2-(hydroxymethyl)-5-methoxytetrahydro-2H-pyran-3-ol] | 
54200 nM |  | 1870 nM |  | CO[C@@H]1[C@@H](n2cc(-c3ccc(F)c(F)c3)nn2)[C@@H](O)[C@@H](CO)O[C@H]1S[C@@H](c1ncccc1C)C1(O)CCC(F)(F)CC1 [Example 16.44.126S.I., (2R,3R,4S,5R,6S)-6-(((S)-(4,4-Difluoro-1-hydroxycyclohexyl)(3-methylpyridin-2-yl)methyl)thio)-4-(4-(3,4-difluorophenyl)-1H-1,2,3-triazol-1-yl)-2-(hydroxymethyl)-5-methoxytetrahydro-2H-pyran-3-ol] | 
1680 nM |  | 140 nM |  | CO[C@@H]1[C@@H](n2cc(-c3cc(F)c(Cl)c(Cl)c3)nn2)[C@@H](O)[C@@H](CO)O[C@H]1SC(c1ncccc1C)C1(O)CCC(F)(F)CC1 (stereo partly drawn) [Example 17.44.126.I., (2R,3R,4S,5R,6S)-4-(4-(3,4-Dichloro-5-fluorophenyl)-1H-1,2,3-triazol-1-yl)-6-(((4,4-difluoro-1-hydroxycyclohexyl)(3-methylpyridin-2-yl)methyl)thio)-2-(hydroxymethyl)-5-methoxytetrahydro-2H-pyran-3-ol] | 
3470 nM |  | 120 nM |  | CO[C@@H]1[C@@H](n2cc(-c3cc(F)c(Br)c(F)c3)nn2)[C@@H](O)[C@@H](CO)O[C@H]1SC(c1ncccc1C)C1(O)CCC(F)(F)CC1 (stereo partly drawn) [Example 18.44.126.I., (2R,3R,4S,5R,6S)-4-(4-(4-Bromo-3,5-difluorophenyl)-1H-1,2,3-triazol-1-yl)-6-(((4,4-difluoro-1-hydroxycyclohexyl)(3-methylpyridin-2-yl)methyl)thio)-2-(hydroxymethyl)-5-methoxytetrahydro-2H-pyran-3-ol] | 
920 nM |  | 70 nM |  | CO[C@@H]1[C@@H](n2cc(-c3ccc(Cl)c(F)c3F)nn2)[C@@H](O)[C@@H](CO)O[C@H]1SC(c1ncccc1C)C1(O)CCC(F)(F)CC1 (stereo partly drawn) [Example 22.44.126.I., (2R,3R,4S,5R,6S)-4-(4-(4-Chloro-2,3-difluorophenyl)-1H-1,2,3-triazol-1-yl)-6-(((4,4-difluoro-1-hydroxycyclohexyl)(3-methylpyridin-2-yl)methyl)thio)-2-(hydroxymethyl)-5-methoxytetrahydro-2H-pyran-3-ol] | 
550 nM |  | 50 nM |  | CO[C@@H]1[C@@H](n2cc(-c3ccc(C)c(F)c3F)nn2)[C@@H](O)[C@@H](CO)O[C@H]1SC(c1ncccc1C)C1(O)CCC(F)(F)CC1 (stereo partly drawn) [Example 23.44.126.I., (2R,3R,4S,5R,6S)-6-(((4,4-Difluoro-1-hydroxycyclohexyl)(3-methylpyridin-2-yl)methyl)thio)-4-(4-(2,3-difluoro-4-methylphenyl)-1H-1,2,3-triazol-1-yl)-2-(hydroxymethyl)-5-methoxytetrahydro-2H-pyran-3-ol] | 
